Measured values published in patent US20230220047A1, “PEPTIDES FOR TREATMENT OF SEPSIS AND CANCER” (NORWEGIAN UNIVERSITY OF SCIENCE AND TECHNOLOGY (NTNU), priority 2020, published 2023).

These substances were tested on THP-1 cells (assay: LDH cytotoxicity assay in THP-1 cells). Conditions: CPP screen, 15 μM, 30 min pre-treatment, LPS 100 ng/ml.
Experimental: For every assay, separate wells were seeded for the required controls (Spontaneous LDH Release Controls and Maximum LDH Release Control) with the same amount of cells as used for peptide treatments. All supernatants were analysed in triplicate with the average value of technical replicates taken into calculations.
THP-1 cells were pre-treated with increasing concentrations of P7-Arg11 and control peptide Arg11 for 1 h (FIG. 3).

Substance	reduction of LPS-mediated toxicity (LDH assay)
Ac-ITVYASVTLTGRRRRRRR-NH2 [Peptide P7-Arg7, ITVYASVTLTGRRRRRRR]	some decrease
Ac-ITVYASVTLTGRRRRRRRRR-NH2 [Peptide P7-Arg9]	some decrease
Ac-RRRRRRRRRRRGITVYASVTLT-NH2 [Arg11-P7]	some decrease

What follows are substances tested on TLR4 (assay: qPCR of LPS-mediated cytokine mRNA expression in THP-1 macrophages). Conditions: control/decoy peptide (data not shown).
Assay type: cell-based, human
Experimental: SW480 (ATCC CCL-228) and Jurkat (ATCC Clone E6-1; TIB-152) cells were cultured in RPMI 1640 (Sigma-Aldrich, Schnelldorf, Germany) supplemented with 10% heat-inactivated FCS, penicillin/streptomycin (Life Technologies) and 20 mM L-Glutamine. THP-1 cells (ATCC TIB-202) were cultured in RPMI-1640 (high-glucose, ATCC) supplemented with 10% heat inactivated foetal calf serum (FCS), 100 nM penicillin/streptomycin and 5 μM β-mercaptoethanol (Sigma). THP-1 cells were differentiated with 60 ng/ml phorbol 12-myristate 13-acetate (PMA, Sigma) for 72 h, followed by 24 or 48 h in medium without PMA.
Total RNA was isolated from the cells using Qiazol reagent #79306 from QIAGEN, and chloroform extraction followed by purification on RNeasy Mini columns with DNAse digestion (Qiagen). cDNA was prepared using the Maxima First Strand cDNA Synthesis Kit for quantitative real-time polymerase chain reaction (RT-qPCR) (Thermo Fisher Scientific) according to the manufacturer's protocol. qPCR was performed using the PerfeCTa qPCR FastMix (Quanta Biosciences) in replicates and cycled in a StepOnePlus™ Real-Time PCR cycler. The following TaqMan® Gene Expression Assays (Applied Biosystems®) were used: IFNβ (Hs01077958_s1), TNF (Hs00174128_m1), TBP (Hs00427620_m1), CXCL10 (Hs01124251_g1), IL-6 (Hs00174131_m1) and IL-1β (Hs01555410_m1), for human cells; Ifnβ (Mm00439552_s1), Tnf (Mm00443258_m1), Tbp (Mm01277042_m1) and II-1β (Mm00434228_m1), for mouse cells. No RT controls were negative. The level of TBP mRNA was used for normalisation and results presented as relative expression compared to the control untreated sample. Relative expression was calculated using Pfaffl's mathematical model (Pfaffl, Nucleic Acids Research 29(9): e45, 2001). Results are presented as the mean and SD expression fold change for biological replicates relative to non-stimulated cells. Statistical significance was evaluated in GraphPad Prizm 5.03. Data distribution was assumed to be normal but this was not formally tested. The difference between the two groups was determined by two-tailed t test.

Substance	LPS- or E. coli particle-induced expression of IFNβ, CXCL10 and TNF
IATYASTALTGRRRRRRRRRRR (Ac-IATYASTALTGRRRRRRRRRRR-NH2) [Peptide P7C3-Arg11, control/decoy peptide]	no effect

The substances below were run on ANBL-6 multiple myeloma cells (assay: CellTiter-Glo cell viability assay, ANBL-6). Conditions: 15 μM.
Assay type: cell-based
Experimental: Minor effects on the proliferation of the IH-1 and RPMI 8226 cell lines are seen. Cells were seeded at the level shown (left-hand bar of each set) then incubated in medium containing water, 10 μM penetratin or 10 μM P7-A4-Pen for 48 hr (except for INA-6 cells, which were incubated with 12.5 μM penetratin or 12.5 μM P7-A4-Pen). The number of viable cells was detected based on quantitation of ATP by luminescent signal in correlation to a standard curve prepared for each cell line. Results are based on 3-5 biological replicates for each condition, error bars show standard deviation of mean.
Cells were seeded and then incubated in growth medium alone or supplemented with water, DMSO, 15 μM penetratin or 15 μM investigational peptide. The growth medium only and H2O—, DMSO- and penetratin-supplemented cultures constituted controls.
The solid horizontal lines show the amount of cells originally seeded. In (A) ANBL-6 cells were seeded at a level of 10,000 cells/well, then incubated in medium supplemented with water, the control peptide C3A-Pen, P7-Pen, P7-A4-Pen, P7-N4-Pen or P7-K2-Pen for 48 hours. The peptides were included at concentrations of 5, 10, 12.5, 15, 20 or 30 μM. Cells were counted at 48 hours. In (B), ANBL-6 cells were seeded at a level of 5000 cells/well, then incubated in medium supplemented with water, P6-Pen, P-P6-Pen, P7-D4-Pen or P7-A4-Pen for 48 hours. Peptides were included at concentrations of 5, 10 or 20 μM. Cells were counted at 48 hours. […] Results are based on 3 biological replicates, error bars show standard deviation of mean.
Multiple myeloma cells JJN-3 (DSMZ (Germany) no. ACC 541), ANBL-6 (Cellosaurus accession number CVCL_5425, obtained from Dr Diane Jelinek, Mayo Clinic, Rochester, Minn.), INA-6 (Cellosaurus accession number CVCL_5209, obtained from Dr M. Gramatzki, University of Erlangen-Nurnberg, Erlangen, Germany), RPMI-8226 (ATCC CCL-155), and IH-1 (Cellosaurus accession number CVCL_WZ44, established from the pleural effusion of a myeloma patient by Myeloma research group, IKOM, NTNU, Trondheim, Norway) were grown in RPMI-1640 (Sigma-Aldrich Norway, Oslo, Norway) supplemented with 100 nM penicillin/streptomycin and 10% FCS, and for ANBL-6, IH-1 and INA-6 cells 2 ng/ml recombinant IL-6 (Gibco, Thermo Fisher Scientific, Waltham, Mass., USA). Murine multiple myeloma Vk*MYC cells were obtained from M.D. Leif Bergsagel (Mayo Clinic, Richester, Minn., USA) and cultured in RPMI-1640 supplemented with 2% human serum (B^+, The blood bank, St Olav's Hospital, Trondheim, Norway), 100 nM penicillin/streptomycin, L-Glutamine (2 mM) and recombinant IL-6 (1 ng/ml). HEK293T (ATCC CRL-3216) were cultured in DMEM with 10% FCS. THP-1 TRAM knockout (KO) and TLR4 KO cell lines, and matching lentivirally transduced control cell lines, were differentiated in the same way as wild type (WT) THP-1. TRAM KO THP-1 cell line is described in Yurchenko et al. (supra).
To evaluate the potential impact of the P7 peptide on proliferation of tumour cells of lymphoid origin, we performed a CellTiter-Glo Luminescent Cell Viability Assay to address proliferation of several multiple myeloma (MM) cell lines. For the assay, cells were incubated for 48 h in respective media containing either solvent (water), 10 μM control peptide (Pen) or the SLAMF1-derived peptide P7-A4-Pen for 48 h (FIG. 32) (with the exception of the INA-6 cells which were incubated with 12.5 μM control peptide or P7-A4-Pen). […] This effect could be mediated by P7-A4-Pen-induced inhibition of signalling pathways that are crucial for driving proliferation and/or survival of MM tumour cells.

Substance	effect on proliferation of ANBL-6 cells
Ac-IKVYASVTLTGRQIKIWFQNRRMKWKK-NH2 [Peptide P7-K2-Pen]	anti-proliferative effect
Ac-ITVDASVTLTGRQIKIWFQNRRMKWKK-NH2 [Peptide P7-D4-Pen]	anti-proliferative effect
ITVSASVTLTGRQIKIWFQNRRMKWKK (Ac-ITVSASVTLTGRQIKIWFQNRRMKWKK-NH2) [Peptide P7-S4-Pen]	anti-proliferative effect

Same assay, conditions: 5, 10, 12.5, 15, 20 and 30 μM or 5, 10 and 20 μM, 48 h

Substance	anti-proliferative activity over a concentration series
Ac-IKVYASVTLTGRQIKIWFQNRRMKWKK-NH2 [Peptide P7-K2-Pen]	clear concentration-dependent effect
Ac-ITVDASVTLTGRQIKIWFQNRRMKWKK-NH2 [Peptide P7-D4-Pen]	clear concentration-dependent effect
IATYASVTLTGRQIKIWFQNRRMKWKK (Ac-IATYASVTLTGRQIKIWFQNRRMKWKK-NH2) [Peptide P7C3A-Pen, control peptide]	essentially no anti-proliferative effect

What follows are substances tested on TLR4 (assay: Western blot of LPS signalling in THP-1 cells and primary human monocytes). Conditions: data not shown.
Assay type: cell-based
Experimental: Protein pellets were dissolved by heating protein pellets for 10 min at 95° C. in buffer containing 4 M urea, 1 SDS (Sigma) and NuPAGE® LDS Sample Buffer (4×) (Thermo Fisher Scientific). Otherwise, lysates were made using 1× RIPA lysis buffer (150 mM NaCl, 50 mM TrisHCl (pH 7.5), 1% Triton X100, 5 mM EDTA, protease inhibitors, phosphatase inhibitors). For Western blot analysis we used pre-cast protein gels NuPAGE™ Novex™ and iBlot Transfer Stacks iBlot Gel Transfer Device (Thermo Fisher Scientific). Proteins were transferred to the membrane by dry-blotting using iBlot® 2 NC Regular/Mini Stacks (Life Technologies) in the iBlot 2 Dry Blotting System (Life Technologies). After secondary antibody incubation, membranes were washed and incubated with HRP substrate solution (SuperSignal™ West Femto Maximum Sensitivity Substrate (Thermo Fisher Scientific)). Images were taken using Odyssey® Fc (LI-CORE). Quantification graphs were generated by the analysis of signal intensities for protein bands (protein of interest and endogenous loading control—β-tubulin from the same membrane) using Odyssey software (LI-CORE). Data were normalised to the expression levels of β-tubulin and presented as a relative fold change to the control sample.
Further, we tested the effect of P7-Pen on phosphorylation of p38 MAPK, IκBα degradation and modification of IRAK1 in human macrophages (THP-1 cells) and primary human monocytes. P7-Pen inhibited LPS-mediated phosphorylation of p38 MAPK (FIG. 24A) and inhibited IRAK1 ubiquitination/phosphorylation (visualised as band shift to higher molecular weight) in primary monocytes (FIG. 24B).

Substance	pattern of inhibition of p38 MAPK phosphorylation and IRAK1 modification as seen with P7-Pen
IATYASTALTGRQIKIWFQNRRMKWKK (Ac-IATYASTALTGRQIKIWFQNRRMKWKK-NH2) [Peptide P7C3-Pen, control peptide]	not
ITVYASVTATGRQIKIWFQNRRMKWKK (P7-A9-Pen) [Peptide P7-A9-Pen]	inactive

Each substance was assayed on TLR4 (assay: ELISA/Bioplex of LPS-mediated cytokine secretion by THP-1 cells). Conditions: 15 μM, 30 min pre-treatment, LPS 100 ng/ml 5 h; relative to P7-Pen.
Assay type: cell-based, human
Experimental: (A) Results of LDH assay and ELISAs analysing cytokine secretion after 5 h of stimulation with LPS (graphs show mean values for at least 3 biological replicates). […] In the tables average values are presented based on 3-5 biological replicates for each experiment. […]
TNF in supernatants was detected using a human TNF-alpha DuoSet ELISA (DY210) (R&D Systems); CXCL10 using a DuoSet ELISA (DY266) (R&D Systems); IL-1β using a BD OptEiA human IL-1β ELISA SetII (#557953, BD Biosciences): IFNβ using a VeriKine-HS™ Human Interferon-Beta Serum ELISA Kit (#41415) from PBL Assay Science. Some supernatants were also analysed by multiplex cytokine assay (Bio-Plex; Bio-Rad Laboratories Inc.) for IL-1β, IL-6, IL-8, CXCL10/IP-10. Results are presented as mean and SD for biological replicates for a representative donor (primary human macrophages), or at least three independent experiments for the model cell line THP-1. Statistical significance was evaluated in GraphPad Prizm 5.03. Data distribution was assumed to be normal but this was not formally tested. The difference between the two groups was determined by two-tailed t test.

Substance	inhibitory activity towards LPS-induced CXCL10, TNF and IL-1β secretion (ELISA)
ATVYASVTLTGRQIKIWFQNRRMKWKK (P7-A1-Pen) [Peptide P7-A1-Pen]	totally abrogated activity
Ac-ITVYASVTLDGRQIKIWFQNRRMKWKK-NH2 [Peptide P7-D10-Pen]	high levels of activity
Ac-ITVYASVTLGGRQIKIWFQNRRMKWKK-NH2 [Peptide P7-G10-Pen]	high levels of activity
ITLYASVTLTGRQIKIWFQNRRMKWKK (Ac-ITLYASVTLTGRQIKIWFQNRRMKWKK-NH2) [Peptide P7-L3-Pen]	only partially decreased
ITVYASVTLPAGRQIKIWFQNRRMKWKK (P10-A11-Pen) [P10-Ala11-Pen]	totally abrogated
ITVYASVTLPEGRQIKIWFQNRRMKWKK (Ac-ITVYASVTLPEGRQIKIWFQNRRMKWKK-NH2) [Peptide P10-Pen]	totally abrogated
ITVYASVTLTAGRQIKIWFQNRRMKWKK (P11-A11-Pen) [P11-Ala11-Pen]	totally abrogated
ITVYASVTLTEGRQIKIWFQNRRMKWKK (P11-Pen) [Peptide P11-Pen]	totally abrogated
NSITVYASVTLTGRQIKIWFQNRRMKWKK (P3sh2-Pen) [Peptide P3sh2-Pen]	did not cause loss of inhibitory activity
TNSITVYASVTLTGRQIKIWFQNRRMKWKK (P3sh1-Pen) [Peptide P3sh1-Pen]	did not cause loss of inhibitory activity
